Measured values as given in patent US9505710B2 (priority 2015, dated 2016).
Where a name gives a salt, the structure may show the parent alone.

These compounds were tested against T1, BoNT/A LC1-429 (Clostridium botulinum, UniProt P0DPI1) (assay: biochemical). Conditions: BoNT/A Ki (nM).
T1 sequence (P0DPI1 1-429, added parts left off): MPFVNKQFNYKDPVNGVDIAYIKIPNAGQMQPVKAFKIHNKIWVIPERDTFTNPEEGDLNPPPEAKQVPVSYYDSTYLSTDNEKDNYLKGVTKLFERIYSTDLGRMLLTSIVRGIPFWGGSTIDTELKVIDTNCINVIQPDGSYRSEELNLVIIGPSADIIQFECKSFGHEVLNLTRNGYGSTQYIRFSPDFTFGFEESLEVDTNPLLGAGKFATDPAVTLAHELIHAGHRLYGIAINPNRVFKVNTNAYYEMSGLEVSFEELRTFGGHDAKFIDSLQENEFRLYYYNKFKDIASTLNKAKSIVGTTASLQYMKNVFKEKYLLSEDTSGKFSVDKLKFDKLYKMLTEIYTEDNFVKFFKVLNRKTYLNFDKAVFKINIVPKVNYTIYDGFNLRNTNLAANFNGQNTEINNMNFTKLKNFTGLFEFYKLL

Row | SMILES | Ki
1 | O=C(C[C@@H](OCCO)[C@H](Cc1ccc(Cl)cc1)c1ccc(F)cc1F)NO [Example 6-18, (3R,4R)-5-(4-chlorophenyl)-4-(2,4-difluorophenyl)-N-hydroxy-3-(2-hydroxyethoxy)pentanamide] | 8.75 nM
2 | O=C(C[C@@H](OCCCO)[C@H](Cc1ccc(Cl)cc1)c1ccc(F)cc1F)NO [Example 6-19, (3R,4R)-5-(4-chlorophenyl)-4-(2,4-difluorophenyl)-N-hydroxy-3-(3-hydroxypropoxy)pentanamide] | 1.45 nM
3 | CO[C@H](CC(=O)NO)[C@H](Cc1ccc(Cl)cc1)c1ccc(F)cc1F [Example 6-20, (3R,4R)-5-(4-chlorophenyl)-4-(2,4-difluorophenyl)-N-hydroxy-3-methoxypentanamide potassium salt] | 8.3 nM
4 | CCO[C@H](CC(=O)NO)[C@H](Cc1ccc(Cl)cc1)c1ccc(F)cc1F [Example 6-21, (3R,4R)-5-(4-chlorophenyl)-4-(2,4-difluorophenyl)-3-ethoxy-N-hydroxypentanamide potassium salt] | 12 nM
5 | CO[C@H](CC(=O)NO)[C@H](Cc1ccc(Cl)cc1C)c1ccc(F)cc1F [Example 6-22, (3R,4R)-5-(4-chloro-2-methylphenyl)-4-(2,4-difluorophenyl)-N-hydroxy-3-methoxypentanamide potassium salt] | 6.7 nM
6 | CO[C@H](CC(=O)NO)[C@H](Cc1ccc(Cl)cc1C)c1ccc(Br)cc1F [Example 6-23, (3R,4R)-4-(4-bromo-2-fluorophenyl)-5-(4-chloro-2-methylphenyl)-N-hydroxy-3-methoxypentanamide] | 1.94 nM
7 | CCO[C@H](CC(=O)NO)[C@H](Cc1ccc(Cl)cc1)c1ccc(Cl)c(Br)c1 [Example 6-24, (3R,4R)-4-(3-bromo-4-chlorophenyl)-5-(4-chlorophenyl)-3-ethoxy-N-hydroxypentanamide] | 8.1 nM
8 | CC(C)(C)OC(=O)NCCCO[C@H](CC(=O)NO)[C@H](Cc1ccc(Cl)cc1)c1ccc(F)cc1F [Example 6-25, tert-butyl (3-(((3R,4R)-5-(4-chlorophenyl)-4-(2,4-difluorophenyl)-1-(hydroxyamino)-1-oxopentan-3-yl)oxy)propyl)carbamate] | > 150000 nM
9 | NCCCO[C@H](CC(=O)NO)[C@H](Cc1ccc(Cl)cc1)c1ccc(F)cc1F [Example 6-26, (3R,4R)-3-(3-aminopropoxy)-5-(4-chlorophenyl)-4-(2,4-difluorophenyl)-N-hydroxypentanamide] | 55000 nM
10 | O=C(O)CCO[C@H](CC(=O)NO)[C@H](Cc1ccc(Cl)cc1)c1ccc(F)cc1F [Example 6-27, 3-(((3R,4R)-5-(4-chlorophenyl)-4-(2,4-difluorophenyl)-1-(hydroxyamino)-1-oxopentan-3-yl)oxy)propanoic acid] | 361 nM

These compounds were tested against T1, BoNT/A LC1-429 (assay: biochemical). Conditions: not given.

Row | SMILES | Ki
11 | CCO[C@H](CC(=O)NO)[C@H](Cc1ccccc1)c1ccc(F)cc1 [Example 1-1, (3R,4R)-3-ethoxy-4-(4-fluorophenyl)-N-hydroxy-5-phenylpentanamide] | 38.5 nM
12 | CCO[C@H](CC(=O)NO)[C@H](Cc1cccc(Br)c1)c1ccc(F)cc1 [Example 1-2, (3R,4R)-5-(3-bromophenyl)-3-ethoxy-4-(4-fluorophenyl)-N-hydroxypentanamide] | 154 nM
13 | CCO[C@H](CC(=O)NO)[C@H](Cc1ccc(Br)cc1)c1ccc(F)cc1 [Example 1-4, (3R,4R)-5-(4-bromophenyl)-3-ethoxy-4-(4-fluorophenyl)-N-hydroxypentanamide] | 6.8 nM
14 | C=Cc1ccc(C[C@H](c2ccc(F)cc2)[C@@H](CC(=O)NO)OCC)cc1 [Example 1-5, (3R,4R)-3-ethoxy-4-(4-fluorophenyl)-N-hydroxy-5-(4-vinylphenyl)pentanamide] | 33.5 nM
15 | CCO[C@H](CC(=O)NO)[C@H](Cc1ccc(CC)cc1)c1ccc(F)cc1 [Example 1-6, (3R,4R)-3-ethoxy-5-(4-ethylphenyl)-4-(4-fluorophenyl)-N-hydroxypentanamide] | 91.5 nM
16 | CCO[C@H](CC(=O)NO)[C@H](Cc1ccc(C(=O)NC)cc1)c1ccc(F)cc1 [Example 1-7] | 1220 nM
17 | CCO[C@H](CC(=O)NO)[C@H](Cc1ccc(C(=O)N(C)C)cc1)c1ccc(F)cc1 [Example 1-8, 4-((2R,3R)-3-ethoxy-2-(4-fluorophenyl)-5-(hydroxyamino)-5-oxopentyl)-N,N-dimethylbenzamide] | 4350 nM
18 | CCO[C@H](CC(=O)NO)[C@H](Cc1ccc(C(=O)O)cc1)c1ccc(F)cc1 [Example 1-10, 4-((2R,3R)-3-ethoxy-2-(4-fluorophenyl)-5-(hydroxyamino)-5-oxopentyl)benzoic acid] | 23300 nM
19 | CCO[C@H](CC(=O)NO)[C@H](Cc1cccc(-c2ccncc2)c1)c1ccc(F)cc1 [Example 1-11, (3R,4R)-3-ethoxy-4-(4-fluorophenyl)-N-hydroxy-5-(3-(pyridin-4-yl)phenyl)pentanamide] | 1060 nM
20 | CCO[C@H](CC(=O)NO)[C@H](Cc1ccc(-c2ccncc2)cc1)c1ccc(F)cc1 [Example 1-12, (3R,4R)-3-ethoxy-4-(4-fluorophenyl)-N-hydroxy-5-(4-(pyridin-4-yl)phenyl)pentanamide] | 178 nM
21 | CCO[C@H](CC(=O)NO)[C@H](Cc1ccc(-c2cccnc2)cc1)c1ccc(F)cc1 [Example 1-13, (3R,4R)-3-ethoxy-4-(4-fluorophenyl)-N-hydroxy-5-(4-(pyridin-3-yl)phenyl)pentanamide] | 147 nM
22 | CCO[C@H](CC(=O)NO)[C@H](Cc1ccc(-c2cncc(C)c2)cc1)c1ccc(F)cc1 [Example 1-14, (3R,4R)-3-ethoxy-4-(4-fluorophenyl)-N-hydroxy-5-(4-(5-methylpyridin-3-yl)phenyl)pentanamide] | 158 nM
